Experimental data taken from ChEMBL document CHEMBL1201862, “PubChem BioAssay data set” (2004).
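In this assay, cells in 96-well plates receive the compound at five concentrations for 48 hours. Endpoints are linearly interpolated between the surrounding concentrations. Here, GI50 denotes the concentration required for 50% inhibition of growth.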 Calls of active or inactive are those of the source. Cut-off read from the data, not from the text of the source: active = GI50 up to about 1.1 µM and inactive = higher.

Assays:
Experiment in all cases: DTP human tumour cell line panel, 48 h
MDA-N = tested on: MDA-N
IGROV-1 = tested on: IGROV-1
A549 = tested on: A549
KM12 = tested on: KM12
SNB-19 = tested on: SNB-19
MOLT-4 = tested on: MOLT-4
SF-295 = tested on: SF-295
HOP-92 = tested on: HOP-92
Hs-578T = tested on: Hs-578T
NCI-H23 = tested on: NCI-H23
MCF7 = tested on: MCF7
TK-10 = tested on: TK-10
SK-MEL-2 = tested on: SK-MEL-2
OVCAR-3 = tested on: OVCAR-3
PC-3 = tested on: PC-3
OVCAR-4 = tested on: OVCAR-4
ACHN = tested on: ACHN
HOP-62 = tested on: HOP-62
RXF 393 = tested on: RXF 393
K562 = tested on: K562

Row | Structure (SMILES) | GI50 (MDA-N) | GI50 (IGROV-1) | GI50 (A549) | GI50 (KM12) | GI50 (SNB-19) | GI50 (MOLT-4) | GI50 (SF-295) | GI50 (HOP-92) | GI50 (Hs-578T) | GI50 (NCI-H23) | GI50 (MCF7) | GI50 (TK-10) | GI50 (SK-MEL-2) | GI50 (OVCAR-3) | GI50 (PC-3) | GI50 (OVCAR-4) | GI50 (ACHN) | GI50 (HOP-62) | GI50 (RXF 393) | GI50 (K562)
1 | O=C(O)Cn1cnc2c(O)nc(Nc3ccccc3)nc21 | > 100 µM (inactive) | > 100 µM (inactive) | > 100 µM (inactive) | > 100 µM (inactive) | > 100 µM (inactive) | > 100 µM (inactive) | > 100 µM (inactive) | > 100 µM (inactive) | > 100 µM (inactive) | > 100 µM (inactive) | > 100 µM (inactive) | > 100 µM (inactive) | > 100 µM (inactive) | > 100 µM (inactive) | > 100 µM (inactive) | > 100 µM (inactive) | > 100 µM (inactive) | > 100 µM (inactive) |  | 
2 | COC1CC(C)C(OC)c2cc(O)cc(c2O)NC(=O)/C(C)=C/C=C\C(C)C(OC(N)=O)/C(C)=C\C(C)C1OC (stereo not drawn) | 0.144 µM (active) | 0.221 µM (active) | 2.51 µM (inactive) | 0.255 µM (active) | 3.78 µM (inactive) | 0.083 µM (active) | 1.24 µM (inactive) | 0.347 µM (active) |  |  | 0.125 µM (active) | 6.97 µM (inactive) | 1.69 µM (inactive) |  | 0.228 µM (active) | 3.2 µM (inactive) | 4.98 µM (inactive) | 0.579 µM (active) | 0.316 µM (active) | 
3 | S=C(Nc1ccc2c(c1)Cc1ccccc1-2)Nc1ccc2c(c1)Cc1ccccc1-2 | > 100 µM (inactive) | > 100 µM (inactive) | > 100 µM (inactive) | > 100 µM (inactive) | > 100 µM (inactive) | 15 µM (inactive) | > 100 µM (inactive) | 80.7 µM (inactive) | > 100 µM (inactive) | > 100 µM (inactive) | > 100 µM (inactive) | > 100 µM (inactive) |  | > 100 µM (inactive) | > 100 µM (inactive) | > 100 µM (inactive) | > 100 µM (inactive) | > 100 µM (inactive) | > 100 µM (inactive) | 19.1 µM (inactive)
4 | COc1cc([N+](=O)[O-])c(S(=O)(=O)O)cc1-n1nc(C(=O)Nc2ccccc2)n[n+]1-c1cc(S(=O)(=O)[O-])c([N+](=O)[O-])cc1OC | > 100 µM (inactive) | > 100 µM (inactive) | > 100 µM (inactive) | > 100 µM (inactive) | > 100 µM (inactive) | > 100 µM (inactive) | > 100 µM (inactive) | > 100 µM (inactive) | > 100 µM (inactive) | > 100 µM (inactive) | > 100 µM (inactive) | > 100 µM (inactive) | > 100 µM (inactive) | > 100 µM (inactive) | > 100 µM (inactive) | > 100 µM (inactive) | 93.8 µM (inactive) | > 100 µM (inactive) |  | 88.7 µM (inactive)
5 | CN(Cc1c[n+]([O-])c2nc(N)nc(N)c2n1)c1ccc(C(=O)NC23CC4CC(CC(C4)C2)C3)cc1 | 70.6 µM (inactive) | 54.3 µM (inactive) |  | > 100 µM (inactive) | 92.7 µM (inactive) | 32.7 µM (inactive) | > 100 µM (inactive) |  | 10.6 µM (inactive) | > 100 µM (inactive) | 47.8 µM (inactive) | > 100 µM (inactive) | > 100 µM (inactive) | > 100 µM (inactive) | 89.7 µM (inactive) |  | > 100 µM (inactive) | > 100 µM (inactive) | 31.2 µM (inactive) | 48.9 µM (inactive)
6 | O=[N+]([O-])c1ccc(O)c(/C=N/CC2CCCN3CCCCC23)c1 (stereo not drawn) | 44.8 µM (inactive) | 43.9 µM (inactive) | 91.4 µM (inactive) | 37.7 µM (inactive) | 25.1 µM (inactive) |  | 31.2 µM (inactive) |  | 16.9 µM (inactive) | 46.7 µM (inactive) | 46.8 µM (inactive) | > 100 µM (inactive) |  | 31 µM (inactive) | 57.1 µM (inactive) |  | 26.9 µM (inactive) | 83.4 µM (inactive) | 23 µM (inactive) | 
7 | CCOC(=O)C1C(=O)CC(O)(OCC)C(C(=O)OCC)C1c1ccc(OC)cc1 (stereo not drawn) | > 100 µM (inactive) | > 100 µM (inactive) | > 100 µM (inactive) | > 100 µM (inactive) | > 100 µM (inactive) | > 100 µM (inactive) | > 100 µM (inactive) | > 100 µM (inactive) |  | > 100 µM (inactive) | > 100 µM (inactive) | > 100 µM (inactive) | > 100 µM (inactive) | > 100 µM (inactive) | > 100 µM (inactive) | > 100 µM (inactive) | > 100 µM (inactive) | > 100 µM (inactive) | > 100 µM (inactive) | > 100 µM (inactive)
8 | O=S(=O)(O)c1cc(S(=O)(=O)O)c2c(/N=N/c3ccc(S(=O)(=O)O)c4ccccc34)c(O)ccc2c1 | > 100 µM (inactive) | > 100 µM (inactive) | > 100 µM (inactive) | > 100 µM (inactive) | > 100 µM (inactive) | > 100 µM (inactive) | > 100 µM (inactive) | > 100 µM (inactive) | > 100 µM (inactive) | > 100 µM (inactive) |  | > 100 µM (inactive) | > 100 µM (inactive) | > 100 µM (inactive) | > 100 µM (inactive) | > 100 µM (inactive) | > 100 µM (inactive) | > 100 µM (inactive) | > 100 µM (inactive) | > 100 µM (inactive)
9 | Cc1ccc(S(=O)(=O)N2CC2CCCCC=O)cc1 (stereo not drawn) | > 100 µM (inactive) | 80.9 µM (inactive) | > 100 µM (inactive) | 63.1 µM (inactive) | > 100 µM (inactive) | 37.4 µM (inactive) | > 100 µM (inactive) | > 100 µM (inactive) | 44.3 µM (inactive) | > 100 µM (inactive) |  | > 100 µM (inactive) | > 100 µM (inactive) | > 100 µM (inactive) | > 100 µM (inactive) | > 100 µM (inactive) | 31.3 µM (inactive) | > 100 µM (inactive) | > 100 µM (inactive) | 32.6 µM (inactive)
10 | CC1(C)CC2C(C1=O)C1(C)CCCC2(C)C1=O (stereo not drawn) | > 100 µM (inactive) | > 100 µM (inactive) | > 100 µM (inactive) | > 100 µM (inactive) |  | > 100 µM (inactive) | > 100 µM (inactive) | > 100 µM (inactive) | > 100 µM (inactive) | > 100 µM (inactive) | > 100 µM (inactive) | > 100 µM (inactive) | > 100 µM (inactive) | > 100 µM (inactive) | > 100 µM (inactive) | > 100 µM (inactive) | > 100 µM (inactive) | > 100 µM (inactive) |  | > 100 µM (inactive)
11 | COc1ccc(-n2cnc3c(NC(Cc4ccccc4)C(=O)O)ncnc32)cc1 (stereo not drawn) | > 100 µM (inactive) | > 100 µM (inactive) | > 100 µM (inactive) | > 100 µM (inactive) | > 10 µM (inactive) |  | > 100 µM (inactive) | > 100 µM (inactive) | > 100 µM (inactive) | > 100 µM (inactive) | > 100 µM (inactive) | > 100 µM (inactive) | > 100 µM (inactive) | > 100 µM (inactive) | > 100 µM (inactive) | > 100 µM (inactive) | > 100 µM (inactive) | > 100 µM (inactive) |  | > 100 µM (inactive)
12 | COC1(C(C)(C)C)C=C(C(C)(C)C)P(=O)(O)O1 (stereo not drawn) | > 100 µM (inactive) | > 100 µM (inactive) | > 100 µM (inactive) | > 100 µM (inactive) | > 100 µM (inactive) |  | > 100 µM (inactive) | > 100 µM (inactive) | > 100 µM (inactive) | > 100 µM (inactive) | > 100 µM (inactive) | > 100 µM (inactive) | > 100 µM (inactive) | > 100 µM (inactive) | > 100 µM (inactive) | > 100 µM (inactive) | > 100 µM (inactive) | > 100 µM (inactive) |  | > 100 µM (inactive)
13 | O=C(Cn1c(=O)oc2ccc(C(=O)c3ccc(F)cc3)cc21)c1ccccc1 | > 100 µM (inactive) | > 100 µM (inactive) | 55.8 µM (inactive) | > 100 µM (inactive) | > 100 µM (inactive) | 42.4 µM (inactive) |  | > 100 µM (inactive) | > 100 µM (inactive) | > 100 µM (inactive) | > 100 µM (inactive) | > 100 µM (inactive) | > 100 µM (inactive) |  | > 100 µM (inactive) | > 100 µM (inactive) | > 100 µM (inactive) | > 100 µM (inactive) | > 100 µM (inactive) | > 100 µM (inactive)
14 | N#Cc1c(N2CCCC2)nsc1Nc1ccccc1 | > 100 µM (inactive) | > 100 µM (inactive) | > 100 µM (inactive) | > 100 µM (inactive) | > 100 µM (inactive) | > 100 µM (inactive) | > 100 µM (inactive) | > 100 µM (inactive) | > 100 µM (inactive) | > 100 µM (inactive) |  | > 100 µM (inactive) | > 100 µM (inactive) |  | > 100 µM (inactive) | > 100 µM (inactive) | > 100 µM (inactive) |  | > 100 µM (inactive) | > 100 µM (inactive)
15 | COC(=O)C1=C(O)C(C(=O)OC)[C@]2(O)[C@H](C(=O)OC)[C@H]1C[C@@H](c1cccc(OC)c1)[C@H]2C(=O)OC (stereo partly drawn) | 15.6 µM (inactive) | 39 µM (inactive) | 23.6 µM (inactive) | 27.7 µM (inactive) | 25.9 µM (inactive) | 20.4 µM (inactive) | 35.8 µM (inactive) | 47 µM (inactive) | 18.7 µM (inactive) | 30.4 µM (inactive) | 23.4 µM (inactive) | 34 µM (inactive) | 17.7 µM (inactive) |  |  | 29 µM (inactive) | 20.4 µM (inactive) | 31 µM (inactive) | 18.8 µM (inactive) | 28.4 µM (inactive)
